Results reported in article PMC8273037 (The Journal of Antibiotics, 2021).
In brackets after ≈: the same amount, converted by molar mass. Several values for one entry are separate records, joined by “and”; a condition that tells them apart may be missing. Identical values can stand only once. Like-named read-outs stand apart in the source and are kept apart here. Blank lines part the entries; values can stand above or below the compound they belong to.

Key:
S. aureus and MRSA = details: cited from earlier work
[1] = test system: Human papillomavirus 11, strain HE611260.1; assay: HPV-11 NanoLuc reporter replication assay; type: cell-based
[2] = Cytotoxicity in C-33 A cells; type: cell-based; details: human
[3] = test system: Herpes simplex virus 1, strain E-377; assay: HSV-1 cytopathic effect reduction assay; type: cell-based
[4] = test system: Human cytomegalovirus, strain GDGr K17 (resistant isolate); assay: HCMV resistant isolate cytopathic effect reduction assay; type: cell-based; details: for EC50 / EC90: Human betaherpesvirus 5, HFF; for EC50: read-out: EC50 (reduced viral replication by 50%); for EC90: read-out: EC90 (reduced viral replication by 90%)
E. coli = details: cited from earlier work
P. aeruginosa = details: cited from earlier work
HIV-1 = details: read-out: EC50, inhibition of infectivity of HIV-1 in vitro; cited from earlier work
[5] = test system: Acinetobacter baumannii ATCC 19606; assay: Antibacterial growth inhibition / MIC; details: hit confirmation
[6] = test system: Klebsiella pneumoniae ATCC 700603 (MDR); assay: Antibacterial growth inhibition / MIC; type: cell-based; details: hit confirmation

Compound: 3-amino-3,4-seco-28-amino-lup-4(23),20(29)-dien
- MIC (S. aureus and MRSA; MRSA, bacteriostatic effect): ≤ 0.25 µg/mL

- EC50 ([1]; human papillomavirus 11, C-33-A, read-out: EC50 (reduced viral replication by 50%)): 680 nM
- EC90 ([1]; human papillomavirus 11, C-33-A, read-out: EC90 (reduced viral replication by 90%)): 101000 nM
Compound: Nc1nc2c(ncn2CCOCP(=O)(O)O)c(=O)[nH]1 [9-[2-(Phosphonomethoxy)ethyl]guanine]
- SI50 selectivity index (CC50/EC50) ([1]; HPV-11, C-33 A cells): >221
- CC50 [2]: > 150000 nM

- EC90 ([3]; Human alphaherpesvirus 1, HFF, read-out: EC90 (reduced viral replication by 90%)): > 150000 nM
- EC50 ([3]; read-out: EC50 (reduced viral replication by 50%), HSV-1 E-377, HFF cells): 830 nM
Compound: Nc1nc2c(ncn2COCCO)c(=O)[nH]1 [Acyclovir]
- SI50 selectivity index (CC50/EC50) ([3]; HSV-1 E-377, HFF cells): >172 and >181

Compound: Nc1ccn(C[C@@H](CO)OCP(=O)(O)O)c(=O)n1 [Cidofovir]
- SI50 selectivity index (CC50/EC50) ([4]; HCMV GDGr K17 (resistant isolate), HFF cells): 120
- EC50 [4]: 920 nM
- EC90 [4]: > 30000 nM

Compound: Nc1nc(O)c2ncn(COC(CO)CO)c2n1 [Ganciclovir]
- EC50 [4]: > 150000 nM
- EC90 [4]: > 150000 nM

Compound: CC1(C)CCC2(C(=O)NCCNCCN)CCC3(C)C(=CCC4C5(C)CCC(=O)C(C)(C)C5CCC43C)C2C1 (stereo not shown) [Oleanonic acid amide with diethylentriamine]
- MIC (E. coli): 25 µM (≈ 13.5 µg/mL)
- MIC (P. aeruginosa): 50 µM (≈ 27 µg/mL)

Compound: C=C(C)[C@@H]1CC[C@]2(C(=O)O)CC[C@]3(C)[C@H](CC[C@@H]4[C@@]5(C)CC[C@H](O)C(C)(C)[C@@H]5CC[C@]43C)[C@@H]12 [betulinic acid]
- EC50 (HIV-1): 1400 nM

Compound: C[C@H]1[C@H](C)CC[C@]2(C(=O)O)CC[C@]3(C)C(=CC[C@@H]4[C@@]5(C)CC[C@H](O)C(C)(C)[C@@H]5CC[C@]43C)[C@H]12 [ursolic acid]
- MIC (S. aureus and MRSA; MRSA strain): 64 µg/mL (≈ 140 µM)

Compound: Colistin sulfate
- MIC, A. baumannii [5]: 0.15 µM
- MIC, K. pneumoniae [6]: 0.15 µM
